Laboratory results from patent US20030236218A1, “Aryl phosphate derivatives of d4T with selective activity against adenovirus and HIV” (priority 2002, published 2003).
Read-outs that look alike come from different tables or passages of the source.

How the values were obtained:
[1] = system: cytomegalovirus (CMV) strain AD169; assay: CMV plaque formation assay in SF cells; type: cell-based; details: Human betaherpesvirus 5
Text: (§1) Virus stocks. The HIV-1 strain used in this study was HTLV-IIIB (Uckun et al., 1998 Antimicro. Agents and Chemother., 42:383-388). The non-HIV viruses included in the present study were the gancyclovir-sensitive cytomegalovirus (CMV) strain AD169 (ATCC VR-538); acyclovir-sensitive herpes simplex virus (HSV) Type I strain HF (ATCC VR-260); acyclovir-sensitive HSV Type II strain G (ATCC VR-734); adenovirus strain Type 5, strain adenoid 75 (ATCC VR-5); enterovirus strain, ECHO 30, strain Bastianni (ATCC VR-322); and respiratory syncytial virus (RSV), strain Long (ATCC VR-26).
(§2) Plaque formation assays. Plaque assays were used to examine the activity of the compounds against non-HIV viruses. The skin fibroblast cell line SF (ATCC CRL-2097) was used as a target for AD169, Adenovirus Type 5. […] cell line (ATCC CCL-81) was used as a target for HSV HF and G. The HEP-2 cell line (ATCC CCL-23) was used as a target for the RSV strain Long. These cell lines were cultured at 1×10^5 cells/well in 24-well (all but ECHO 30-infected SF) or 6-well (ECHO 30-infected SF) tissue culture plates with 0.9% methylcellulose or 0.4% SeaPlaque agarose semisolid support. […] Percent inhibition of plaque formation was calculated by comparing the plaque numbers from the test substance-treated infected cells with the plaque numbers from untreated infected cells (i.e., virus controls). The IC50 values were determined using the Statview statistics program (SAS Institute, Inc., Cary, N.C.).
(§3) Statistical analysis. […] An IC50 value was calculated from each set of triplicate wells using nonlinear regression modeling of the exponential form of the linearized equation (Statview, SAS Institute, Inc., Cary, N.C.). […]
(§4) The skin fibroblast cell line SF (ATCC CRL-2097) was used as a target for AD169, Adenovirus Type 5, and ECHO 30; the VERO cell line (ATCC CCL-81) was used as a target for HF and G; and the HEP-2 cell line (ATCC CCL-23) was used as target for the RSV strain Long. Results are expressed as the average IC50 values in μM. […]

HSV Type II strain G = assay: HSV-2 plaque formation assay in VERO cells; type: cell-based, herpes simplex virus Type II; details: Human alphaherpesvirus 2, HSV-2, Strain G
Text: as §1, §2, §3, §4

[2] = system: respiratory syncytial virus (RSV), strain Long; assay: RSV plaque formation assay in HEP-2 cells; type: cell-based; details: human respiratory syncytial virus
Text: as §1, §2, §3, §4

[3] = Pharmacokinetic studies in mice, intravenous administration; type: in vivo, Balb/c mice; details: for AUC: read-out: AUC (converted); for Vd: read-out: Vss; for Tmax: read-out: tmax (converted)
Protocol: Female Balb/c mice (6-8 weeks old) from Taconic (Germantown, N.Y.) were housed in a controlled environment (12-hours of light/12-hours of dark, 22±1° C., 60±10% relative humidity), which is fully accredited by the USDA. All rodents were housed in microisolator cages (Lab Products, Inc., NJ) containing autoclaved bedding. The mice were allowed free access to autoclaved pellet food and tap water throughout the study.
Blood samples (˜500 μL) were obtained from the ocular venous plexus by retro-orbital venipuncture at 0, 2, 5, 10, 15, 30, 45, 60, 120, 240 and 360 minutes after intravenous injection.
(§5) All collected blood samples were heparinized and centrifuged at 7000×g for 5 minutes to separate the plasma fraction from the whole blood. The plasma samples were then processed immediately using the extraction procedure described above.
(§6) Pharmacokinetic modeling and parameter calculations were carried out using the WinNonlin Professional Version 3.0 (Pharsight, Inc., Mountain, Calif.) pharmacokinetics software (Chen et al., Pharm. Res., 16, 1003 (1999); Chen et al., Pharm. Res., 16, 117 (1999); Chen et al., J. Clin. Pharmacol., 39, 1248 (1999); Uckun et al., Clin. Cancer Res., 5, 2954 (1999); and Uckun et al., J. Pharmacol. Exp. Ther., 291, 1301 (1999)). An appropriate model was chosen on the basis of the lowest sum of weighted squared residuals, the lowest Schwartz Criterion (SC), the lowest Akaike's Information Criterion (AIC) value, the lowest standard errors of the fitted parameters, and the dispersion of the residuals. The elimination half-life was estimated by linear regression analysis of the terminal phase of the plasma concentration-time profile. The area under the concentration-time curve (AUC) was calculated according to the linear trapezoidal rule between the first sampling time (0 hours) and the last sampling time plus C/k, where C is the concentration of the last sampling and k is the elimination rate constant. The systemic clearance (CL) was determined by dividing the dose by the AUC. The metabolic clearance of the parent drug, the formation clearance of the metabolite, the clearance elimination of the metabolite, and the distribution clearance of the metabolite were estimated by simultaneous fitting of the concentration of parent drug and metabolites as a function of time curve to pharmacokinetic models (see FIGS. 7A & 8A) specified as a system of differential equations (Gabrielsson & Weiner, Phamacokinetic/Phamacodynamic Data Analysis: Concepts and Applications, Swedish Pharmaceutical Press (1997)).

HIV-1 strain HTLV-IIIB = assay: In vitro anti-HIV-1 activity, p24 antigen assay in PBMNC; type: cell-based; details: Human immunodeficiency virus 1, HIV-1, HTLV-IIIB, day 7
Text: as §1
In vitro assays of anti-HIV-1 activity. Normal human peripheral blood mononuclear cells (PBMNC) from HIV-negative donors were cultured 72 hours in RPMI 1640 supplemented with 20% (v/v) heat-inactivated fetal bovine serum (FBS), 3% interleukin-2, 2 mM L-glutamine, 25 mM HEPES, 2 g/L NaHCO3, 50 Tg/mL gentamicin, and 4 Tg/mL phytohemagglutinin prior to exposure to HIV-1 at a multiplicity of infection (MOI) of 0.1 during a 1 hour adsorption period at 37° C. in a humidified 5% CO2 atmosphere. Subsequently, cells were cultured in 96-well microtiter plates (100 TL, 2×10^6 cells/mL) in the presence of various concentrations of compounds 113 or 609. Aliquots of culture supernatants were removed from the wells on the seventh day after infection for p24 antigen assays, as previously described. […] Percent viral inhibition was calculated by comparing the p24 values from untreated infected cells (i.e., virus controls).
Statistical analysis. […] An IC50 value was calculated from each set of triplicate wells using nonlinear regression modeling of the exponential form of the linearized equation (Statview, SAS Institute, Inc., Cary, N.C.). Hydrolysis rates were determined by fitting single exponential decay equations to the disappearance of the compound in alkali conditions (all R^2 values greater than 0.85). […]

[4] = Pharmacokinetic studies in mice, oral administration; type: in vivo, Balb/c mice
Protocol: Female Balb/c mice (6-8 weeks old) from Taconic (Germantown, N.Y.) were housed in a controlled environment (12-hours of light/12-hours of dark, 22±1° C., 60±10% relative humidity), which is fully accredited by the USDA. All rodents were housed in microisolator cages (Lab Products, Inc., NJ) containing autoclaved bedding. The mice were allowed free access to autoclaved pellet food and tap water throughout the study. All animal care procedures conformed to the Guide for the Care and Use of Laboratory Animals (National Research Council, National Academy Press, Washington D.C. 1996).
Sampling time points were 0, 2, 5, 10, 15, 30, 45, 60, 120, 240 and 360 minutes after the gavage.
as §5, §6

[5] = system: adenovirus strain Type 5, strain adenoid 75; assay: Adenovirus plaque formation assay in skin fibroblast cell line SF; type: cell-based, human adenovirus
Text: as §1
Plaque formation assays. Plaque assays were used to examine the activity of the compounds against non-HIV viruses. The skin fibroblast cell line SF (ATCC CRL-2097) was used as a target for AD169, Adenovirus Type 5. […] cell line (ATCC CCL-81) was used as a target for HSV HF and G. The HEP-2 cell line (ATCC CCL-23) was used as a target for the RSV strain Long. These cell lines were cultured at 1×10^5 cells/well in 24-well (all but ECHO 30-infected SF) or 6-well (ECHO 30-infected SF) tissue culture plates with 0.9% methylcellulose or 0.4% SeaPlaque agarose semisolid support. Minimum Essential Medium (MEM) with Earle's salts (Gibco), L-glutamine, non-essential amino acids, 2% heat-inactivated fetal bovine serum, 1% penicillin/streptomycin, and 0.05% gentamicin served as the culture medium. The incubation times were 3 days for HF, G, ECHO 30, and Long; and 7 days for AD169 and Adenovirus Type 5. Plaque counting was performed with a 20X dissecting microscope for AD169, Type 5, ECHO 30, and RSV Long, and with a light box for HF and G. The fixative agent was crystal violet for all viruses, except for the CMV strain AD169 for which methylene blue was used. Percent inhibition of plaque formation was calculated by comparing the plaque numbers from the test substance-treated infected cells with the plaque numbers from untreated infected cells (i.e., virus controls). The IC50 values were determined using the Statview statistics program (SAS Institute, Inc., Cary, N.C.).
Statistical analysis. Each drug was tested at 6-7 different concentrations ranging from 0.0001 μM to 100 μM. Each assay was set up in triplicate wells and repeated 1-3 times. An IC50 value was calculated from each set of triplicate wells using nonlinear regression modeling of the exponential form of the linearized equation (Statview, SAS Institute, Inc., Cary, N.C.). […] The IC50 values obtained were correlated to the log transformed hydrolysis rate constants by fitting a linear model (JMP Software, SAS Institute Inc., Cary, N.C.). P-values less than 0.05 were deemed significant.
The skin fibroblast cell line SF (ATCC CRL-2097) was used as a target for AD169, Adenovirus Type 5, and ECHO 30; the VERO cell line (ATCC CCL-81) was used as a target for HF and G; and the HEP-2 cell line (ATCC CCL-23) was used as target for the RSV strain Long. Results are expressed as the average IC50 values in μM. Stavudine (STV) was included as a control.

[6] = system: enterovirus strain, ECHO 30, strain Bastianni; assay: Enterovirus plaque formation assay in SF cells; type: cell-based
Text: as §1, §2, §3, §4

[7] = after i.v. compound 113, model fit, C.V. of modeling in parentheses
[8] = female, Balb/c, mouse, in vivo, iv, 100 mg/kg, plasma analyte = label, after i.v. 100 mg/kg compound 113, estimate from composite curve of pooled data
[9] = female, Balb/c, mouse, in vivo, iv, 100 mg/kg, plasma analyte = label, after i.v. 100 mg/kg compound 113, mean ± S.E.M
[10] = female, Balb/c, mouse, in vivo, iv
[11] = female, Balb/c, mouse, in vivo, iv, 40 mg/kg, after i.v. 40 mg/kg d4T, estimate from composite curve of pooled data
[12] = female, Balb/c, mouse, in vivo, iv, 40 mg/kg, after i.v. 40 mg/kg d4T, mean ± S.E.M
[13] = female, Balb/c, mouse, in vivo, iv, 75 mg/kg, plasma analyte = label, after i.v. 75 mg/kg Ala-d4T-MP, estimate from composite curve of pooled data
[14] = female, Balb/c, mouse, in vivo, iv, 75 mg/kg, plasma analyte = label, after i.v. 75 mg/kg Ala-d4T-MP, mean ± S.E.M

Q: With `COC(=O)C(C)NP(=O)(OC[C@@H]1C=C[C@H](n2cc(C)c(=O)[nH]c2=O)O1)Oc1ccc(Br)cc1` (stereo partly drawn) [Compound 113, 5′-[4-Bromophenyl methoxylaninylphosphate]-2′, 3′-didehydro-3′-deoxy thymidine] as the compound, how does the IC50 [1] read?
A: Its IC50 is over 100 µM.

Q: And the IC50 (HSV Type II strain G)?
A: The IC50 was over 100 µM.

Q: And the IC50 ([2]; HEp-2)?
A: Its IC50 is over 100 µM.

Q: What about the “CLm1 (metabolic clearance of compound 113 / formation clearance of Ala-d4T-MP)” value [3, 7] of the same compound?
A: The value was 83.9 mL/min/kg.

Q: And the “CLm2 (metabolic clearance of compound 113 / formation clearance of d4T)” value [3, 7]?
A: Its value is 87.4 mL/min/kg.

Q: What about the AUC [3, 8] of the same compound?
A: The AUC was 19 µM·h.

Q: What about the Vd [3, 8] of the same compound?
A: The Vd was 0.82 L/kg.

Q: What about the Cmax [3, 9] of the same compound?
A: The Cmax was 212 µM.

Q: And the clearance [3, 9]?
A: The clearance was 174 mL/min/kg.

Q: What about the half-life [3, 9] of the same compound?
A: The half-life was 3.6 min.

Q: What about the AUC [3, 9] of the same compound?
A: Its AUC is 17.9 µM·h.

Q: What about the Vd [3, 9] of the same compound?
A: Its Vd is 0.92 L/kg.

Q: And the IC50 (HIV-1 strain HTLV-IIIB)?
A: The IC50 was 0.001 µM.

Q: What about the “plasma concentration of the parent” value ([4]; after oral 100 mg/kg compound 113, below the detection limit) of the same compound?
A: The value was under 0.5 µM.

Q: What about the IC50 ([5]; Adenovirus Type 5, 7 days, ± s.e., read-out: IC50, ADV-induced plaque formation) of the same compound?
A: The IC50 was 0.0223 ± 0.009 µM.

Q: What about the IC50 ([5]; Skin fibroblast, […], read-out: IC50, ADV-induced plaque formation, Adenovirus Type 5, 7 days, ± s.e.) of the same compound?
A: Its IC50 is 0.022 ± 0.009 µM.

Q: And the IC50 [6]?
A: Its IC50 is over 100 µM.

Q: Which results are given for `Cc1cn([C@H]2C=C[C@@H](CO)O2)c(=O)[nH]c1=O` [d4T, 2′, 3′-Didehydro-3′-deoxy thymidine, reference compound]?
A: IC50 [1]: > 100 µM; IC50 (HSV Type II strain G): > 100 µM; IC50 ([2]; RSV, Strain Long, HEP-2 cells, plaque assay, read-out: IC50): > 100 µM; CLme (elimination of d4T derived from Ala-d4T-MP) ([3]; after i.v. Ala-d4T-MP, model fit, C.V. of modeling in parentheses): 88.4 (13.0%) ml/min/kg; CLme2 (elimination of d4T from the body) [3, 7]: 47.1 (74.1%) ml/min/kg; CLme2 (elimination of d4T from the body) [3, 10]: 62.0 mL/min/kg; CLme (elimination of d4T derived from Ala-d4T-MP) [3, 10]: 88.4 mL/min/kg; fraction of parent converted to the metabolite [3, 10]: 15%; fraction of parent converted to the metabolite (fm) [3, 10]: 24%; Cmax [3, 11]: 280 µM; clearance [3, 11]: 15 mL/min/kg; half-life [3, 11]: 30.3 min; AUC [3, 11]: 204 µM·h; Vd [3, 11]: 0.658 L/kg; Cmax [3, 12]: 319 µM; clearance [3, 12]: 15.2 mL/min/kg; half-life [3, 12]: 26.6 min; Vd [3, 12]: 0.582 L/kg; Cmax [3, 13]: 35.2 µM; half-life [3, 13]: 34 min; AUC [3, 13]: 31.5 µM·h; Tmax [3, 13]: 4.4 min; Cmax [3, 14]: 35.9 µM; half-life [3, 14]: 32.4 min; AUC [3, 14]: 30.3 µM·h; Tmax [3, 14]: 5 min; Cmax [3, 8]: 15.7 µM; half-life [3, 8]: 115 min; AUC [3, 8]: 48.6 µM·h; Tmax [3, 8]: 18.7 min; half-life [3, 9]: 116 min; AUC [3, 9]: 47.6 µM·h; Tmax [3, 9]: 17.4 min; AUC ([3]; female, Balb/c, mouse, plasma, iv, after i.v. 40 mg/kg d4T, mean ± S.E.M): 203 µM·h; IC50 (HIV-1 strain HTLV-IIIB): 0.023 ± 0.008 µM; half-life ([4]; mouse, in vivo, po, mice, orally administered d4T): 18 min; Tmax ([4]; mouse, in vivo, po, mice, orally administered d4T, read-out: tmax (converted)): 5 min; bioavailability ([4]; orally administered d4T): 98%; IC50 ([5]; Skin fibroblast, […], Adenovirus Type 5, 7 days, ± s.e., read-out: IC50, ADV-induced plaque formation): 12.3 ± 0.3 µM; IC50 ([6]; ECHO 30, SF cells, plaque assay, read-out: IC50): > 100 µM
